These results are taken from patent publication US7498343B2, “Mycobacterial inhibitors” (priority 2002, dated 2009).

Converted amounts (≈) assume the structure as drawn. Read-outs that look alike come from different tables or passages of the source.

In one data set the test system is M. Smegmatis ATCC607. As to the kind of experiment: In-vitro method for testing compounds for anti-bacterial activity against strain M. smegmatis ATCC607 (Alamar Blue growth inhibition). It is filed as cell-based. Conditions: M. smegmatis ATCC607, pIC50 = -logIC50, IC50 in M, 50% inhibitory concentration for bacterial growth, 48 hours incubation; for IC50: Mycolicibacterium smegmatis, ATCC607, 48 h, read-out: pIC50 (converted). The method, boiled down: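 About 250 CFU/well M. smegmatis ATCC607 in Mueller-Hinton broth exposed to five-fold serial compound dilutions, 48 h at 37 °C, humidified 5% CO2. Growth read by Alamar Blue fluorescence (ex 530/em 590 nm) after 2 h further incubation; % growth inhibition calculated.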
On the technique in general: The colour change of resazurin is a common sign of viable cells or microbes.

The subject of data set [1] is Mycobacterium tuberculosis (strain H37RV). As to the kind of experiment: In-vitro method for testing compounds against M. tuberculosis (resazurin growth inhibition, MIC). It is filed as cell-based. As to conditions: MIC data representing IC90's, 7 days incubation, resazurin fluorescence.
Setting [2] is: Mycobacterium tuberculosis, H37RV, 168 h, read-out: MIC.

Usually pIC50 stands for the negative decadic logarithm of the IC50, by convention in mol/L. A word on the melting point: it is the temperature of the solid-liquid transition. `CCOc1nc2ccc(Br)cc2cc1C(c1ccccc1)C(O)(CCN(C)C)c1ccccc1` (stereo not drawn) [Compound 5] returned a melting point of 162 °C. Moreover, in the data set on M. Smegmatis ATCC607, the pIC50 came out at 7.8. In data set [1], this compound showed an MIC of 0.33 microgram/ml.

In the case of `CN(C)CCC(O)(c1ccccc1)C(c1ccccc1)c1cnc2ccc(Br)cc2c1` (stereo not drawn) [Compound 7], the melting point is 98 °C. Further, in the data set with M. Smegmatis ATCC607, the pIC50 is 4.6. Moreover, the MIC in data set [1] is recorded as 47.54 microgram/ml.

For the compound `CN(C)CCC(O)(c1ccccc1)C(c1ccccc1)c1cnc2ccc(Br)cc2c1` (stereo not drawn) [Compound 8], the melting point is 180 °C. Besides, the pIC50 in the data set with M. Smegmatis ATCC607 was found to be 5.7. In data set [1] (setting [2]), the MIC was 23.8 µg/mL (≈ 50.1 µM).

The compound `COc1nc2ccc(Br)cc2cc1C(c1ccccc1)C(O)(CCN)c1ccccc1` (stereo not drawn) [Compound 9] displayed a melting point of 204 °C. The compound further gave a pIC50 in the data set with M. Smegmatis ATCC607 of 4.5. For the same compound, in data set [1], the MIC amounted to 37.92 microgram/ml.

For the compound `COc1nc2ccc(Br)cc2cc1C(c1ccccc1)C(O)(CC[N+](C)(C)C)c1ccccc1.[I-]` (stereo not drawn) [Compound 10], the melting point came out at 198 °C. Also, the IC50 in the data set on M. Smegmatis ATCC607 was 2510 nM. The MIC in data set [1] (setting [2]) amounted to 10.3 µg/mL.

As to `COc1nc2ccc(Br)cc2cc1C(c1ccccc1)C(O)(CC[N+](C)(C)[O-])c1ccccc1` (stereo not drawn) [Compound 11], the melting point was found to be 208 °C. The IC50 in the data set with M. Smegmatis ATCC607 was 25100 nM. In addition, the MIC in data set [1] (setting [2]) was found to be 41.4 µg/mL (≈ 79.4 µM).

On to `CNCCC(O)(c1cccc2ccccc12)C(c1ccccc1)c1cc2cc(Br)ccc2nc1OC` (stereo not drawn) [Compound 56], for which the IC50 in the data set with M. Smegmatis ATCC607 was 63.1 nM. The MIC in data set [1] (setting [2]) was determined as 43 µg/mL (≈ 79.4 µM).

Take `COc1nc2ccc(Br)cc2cc1C(c1ccccc1)C(O)(CCN(C)C)c1cc(F)ccc1F` (stereo not drawn) [Compound 67]: in the data set on M. Smegmatis ATCC607, the pIC50 was 8.6. The same compound yielded an MIC in data set [1] of 0.34 microgram/ml.

For `COc1nc2ccc(Br)cc2cc1C(c1ccc(C)cc1)C(O)(CCN(C)C)c1cccc2ccccc12` (stereo not drawn) [Compound 71], the melting point was found to be 174 °C. In the data set with M. Smegmatis ATCC607, the pIC50 is on record as 8.5. This compound also showed an MIC in data set [1] of 0.14 microgram/ml.

`COc1nc2ccc(Br)cc2cc1C(c1ccc(C)cc1)C(O)(CCN(C)C)c1cccc2ccccc12` (stereo not drawn) [Compound 72]: the melting point was 178 °C. Besides, the pIC50 in the data set on M. Smegmatis ATCC607 was found to be 6.9. This compound showed an MIC in data set [1] of 3.59 microgram/ml.

`COc1nc2ccc(Br)cc2cc1C(c1ccccc1)C(O)(CC[N+](C)(C)[O-])c1cccc2ccccc12` (stereo not drawn) [Compound 99]: the melting point came out at 218 °C. Besides, the IC50 in the data set on M. Smegmatis ATCC607 is 12.6 nM. Also, the MIC in data set [1] (setting [2]) is 9.06 µg/mL (≈ 15.9 µM).

In turn, `COc1nc2ccc(Br)cc2cc1C(c1ccccc1)C(O)(CCN(C)C)c1cccc(F)c1` (stereo not drawn) [Compound 109] gave a pIC50 in the data set on M. Smegmatis ATCC607 of 8.2. Besides, the MIC in data set [1] is 0.33 microgram/ml.

Compound `COc1nc2ccc(Br)cc2cc1C(c1ccccc1)C(O)(CCN(C)C)c1cc(F)ccc1F` (stereo not drawn) [Compound 110] returned a pIC50 with M. Smegmatis ATCC607 of 8.5. Moreover, the MIC in data set [1] is 0.34 microgram/ml.

`COc1nc2ccc(Br)cc2cc1C(c1ccccc1)C(O)(CCN(C)C)c1cc(F)ccc1F` (stereo not drawn) [Compound 111]: the pIC50 in the data set with M. Smegmatis ATCC607 is 6.4. Also, in data set [1], the MIC worked out at 1.71 microgram/ml.

`COc1nc2ccc(Br)cc2cc1C(c1ccccc1)C(O)(CCN(C)C)c1cccc(F)c1F` (stereo not drawn) [Compound 113]: the melting point was 185 °C. The compound also gave a pIC50 with M. Smegmatis ATCC607 of 8.6. Besides, in data set [1], the MIC was 0.27 microgram/ml.

`COc1nc2ccc(Br)cc2cc1C(c1ccccc1)C(O)(CCN(C)C)c1cccc(F)c1F` (stereo not drawn) [Compound 114] registered a melting point of 210 °C. This compound also displayed a pIC50 with M. Smegmatis ATCC607 of 5.9. Moreover, in data set [1], the MIC is listed as 43.01 microgram/ml.

The compound `COc1nc2ccc(Br)cc2cc1C(c1ccccc1)C(O)(CCN(C)C)c1cc(F)cc(F)c1` (stereo not drawn) [Compound 115] had a pIC50 in the data set on M. Smegmatis ATCC607 of 8.6. In data set [1], this compound gave an MIC of 0.07 microgram/ml.

Regarding `COc1nc2ccc(Br)cc2cc1C(c1ccccc1)C(O)(CCN(C)C)c1cc(F)cc(F)c1` (stereo not drawn) [Compound 116], the pIC50 in the data set with M. Smegmatis ATCC607 is listed as 6.6. In data set [1], the MIC was 8.58 microgram/ml.

As to `COc1nc2ccc(Br)cc2cc1C(c1ccccc1)C(O)(CCN(C)C)c1cc(F)cc(F)c1` (stereo not drawn) [Compound 117], the negative logarithm of the IC50 (pIC50) in the data set on M. Smegmatis ATCC607 turned out to be 6.7. The compound also yielded an MIC in data set [1] of 1.71 microgram/ml.

The compound `COc1nc2ccc(Br)cc2cc1C(c1ccccc1)C(O)(CCN(C)C)c1cc(F)cc(F)c1` (stereo not drawn) [Compound 118] displayed a pIC50 in the data set on M. Smegmatis ATCC607 of 9.1. The compound further had an MIC in data set [1] of 0.01 microgram/ml.

The compound `COc1nc2ccc(Br)cc2cc1C(c1ccccc1)C(O)(CCN1CCCCC1)c1ccc2ccccc2c1` (stereo not drawn) [Compound 129] displayed a pIC50 in the data set on M. Smegmatis ATCC607 of 4.7. In addition, the MIC in data set [1] (setting [2]) amounted to 47.3 µg/mL (≈ 79.4 µM).

The compound `CCN(C)CCC(O)(c1ccc2ccccc2c1)C(c1ccccc1)c1cc2cc(Br)ccc2nc1OC` (stereo not drawn) [Compound 141] returned a pIC50 in the data set on M. Smegmatis ATCC607 of 7.3. Also, the MIC in data set [1] (setting [2]) came out at 9.03 µg/mL (≈ 15.9 µM).

In the data set on M. Smegmatis ATCC607, `CCN(C)CCC(O)(c1ccc2ccccc2c1)C(c1ccccc1)c1cc2cc(Br)ccc2nc1OC` (stereo not drawn) [Compound 142] returned a pIC50 of 6.2. For the same compound, the MIC in data set [1] was determined as 9.03 microgram/ml.

In turn, `COc1nc2ccc(Br)cc2cc1C(c1ccccc1)C(O)(CCN1CCCCC1)c1cccc2ccccc12` (stereo not drawn) [Compound 145] gave a pIC50 in the data set on M. Smegmatis ATCC607 of 5.3. In addition, in data set [1] (setting [2]), the MIC is 59.6 µg/mL (≈ 100 µM).

Turning to `COc1nc2ccc(Br)cc2cc1C(c1ccccc1)C(O)(CCN1CCCCC1)c1cccc2ccccc12` (stereo not drawn) [Compound 146], the pIC50 with M. Smegmatis ATCC607 stood at 4.8. Further, in data set [1], the MIC came to 59.56 microgram/ml.

`CCN(C)CCC(O)(c1cccc2ccccc12)C(c1ccccc1)c1cc2cc(Br)ccc2nc1OC` (stereo not drawn) [Compound 147] gave a pIC50 with M. Smegmatis ATCC607 of 7.4. In data set [1], this compound displayed an MIC of 11.36 microgram/ml.

For the compound `CCN(C)CCC(O)(c1cccc2ccccc12)C(c1ccccc1)c1cc2cc(Br)ccc2nc1OC` (stereo not drawn) [Compound 148], the pIC50 with M. Smegmatis ATCC607 amounted to 4.9. For the same compound, in data set [1], the MIC was 56.96 microgram/ml.

As to `COc1nc2ccc(Br)cc2cc1C(c1ccccc1)C(O)(CCN1CCCCC1)c1ccc2cc(Br)ccc2c1` (stereo not drawn) [Compound 155], the pIC50 in the data set with M. Smegmatis ATCC607 was determined as 4.9. For the same compound, in data set [1] (setting [2]), the MIC came to 67.5 µg/mL (≈ 100 µM).

In turn, `COc1nc2ccc(Br)cc2cc1C(c1ccccc1)C(O)(CCN1CCCCC1)c1ccc2cc(Br)ccc2c1` (stereo not drawn) [Compound 166] registered a negative logarithm of the IC50 (pIC50) with M. Smegmatis ATCC607 of 4.1. In addition, in data set [1], the MIC was 67.45 microgram/ml.

For the compound `COc1nc2ccc(Br)cc2cc1C(c1ccccc1)C(O)(CCN1CCCC1)c1ccc2ccccc2c1` (stereo not drawn) [Compound 170], the pIC50 in the data set on M. Smegmatis ATCC607 was 5.6. In data set [1] (setting [2]), the MIC is 46.2 µg/mL (≈ 79.4 µM).

As for `COc1nc2ccc(Br)cc2cc1C(c1ccccc1)C(O)(CCN1CCCC1)c1ccc2ccccc2c1` (stereo not drawn) [Compound 171], the pIC50 in the data set with M. Smegmatis ATCC607 is recorded as 4.3. Besides, in data set [1], the MIC is 46.19 microgram/ml.

`COc1nc2ccc(Br)cc2cc1C(c1ccccc1)C(O)(CCn1cncn1)c1cccc2ccccc12` (stereo not drawn) [Compound 172]: in the data set on M. Smegmatis ATCC607, the IC50 is 2000 nM. Further, in data set [1] (setting [2]), the MIC amounted to 7.3 µg/mL (≈ 12.6 µM).
